What was measured:
Escherichia coli (Ec) = test: Antibacterial MIC assay (CO-ADD); type: cell-based; settings: 18 h, 37 °C, inhibition ≥ 80%
Method: (§1) The antimicrobial assays were performed according to the protocols of the Community for Open Antimicrobial Drug Discovery (CO-ADD). […] All the sample preparation was done using liquid-handling robots.
(§2) The antibacterial activity of all synthesized complexes was evaluated in five different pathogenic bacteria, including methicillin-resistant Staphylococcus aureus (Sa), Escherichia coli (Ec), Klebsiella pneumonia (Kp), Psedomonas aeruginosa (Pa), and Acinetobacter baumannii (Ab). All bacteria were cultured in cation-adjusted Mueller Hinton Broth (CAMHB) at 37 °C overnight. A sample of each culture was then diluted 40-fold in fresh broth and incubated at 37 °C for 1.5–3 h. The resultant mid-log phase cultures were diluted (CFU/mL measured by OD600), then added to each well of the complexes containing plates, giving a cell density of 5 × 10^5 CFU/mL and a total volume of 50 μL. All the plates were covered and incubated at 37 °C for 18 h without shaking. The inhibition of bacterial growth was determined by measuring the absorbance at 600 nm (OD600) using a Tecan M1000 Pro monochromator plate reader (Männedorf, Switzerland). The percentage of growth inhibition was calculated for each well, using the negative control (media only) and positive control (bacteria without inhibitors) on the same plate as references. […]

[1] = tested on: Acinetobacter baumannii (Ab); test: Antibacterial MIC assay (CO-ADD); type: cell-based; settings: 18 h, 37 °C, inhibition ≥ 80%
Method: as §1, §2

[2] = tested on: Psedomonas aeruginosa (Pa); test: Antibacterial MIC assay (CO-ADD); type: cell-based; settings: 18 h, 37 °C, inhibition ≥ 80%
Method: as §1, §2

[3] = n-octanol/water partition coefficient, shake-flask method; type: physicochemical; settings: n-octanol / buffered saline pH 7.4, shake-flask
Method: The n-octanol/water coefficient of the complexes was determined using the shake-flask method previously described. Buffered-saline distilled water (100 mL, phosphate buffer PO4^3− = 10 mM, (NaCl = 0.15 M, pH 7.4) and n-octanol (100 mL) were shaken together for 72 h to allow the saturation of both phases. Approximately 1 mg of the complexes was dissolved in 5 mL of the aqueous phase, and 5 mL of the organic phase was added, mixing for 10 min. The resulting emulsion was centrifuged to separate the phases. The concentration of the compounds in each phase was determined using UV−Vis absorbance spectroscopy. Log P7.4 was calculated as log (Absorganic/Absaqueous).
Biodistribution studies should be conducted to evaluate whether our complexes could reach their pharmacological target. The potential biodistribution of our complexes was evaluated by the measure of the partition coefficient. This parameter indicates how balanced the lipo- and hydrophilicity of the compounds are. Good equilibrium between these two properties is crucial for proper distribution inside the organism. The bloodstream is aqueous in nature, so hydrophilicity is needed for drug delivery, but too-high hydrophilicity can hinder the penetration of biological membranes. Of course, high lipophilicity behavior can hinder biomedical applications related to a good distribution profile. The chosen method to measure the partition coefficient (Log Pow) was the shake-flask technique, with ideal values in the range of −1 ≤ Log P ow ≤ 3. However, for a greater oral and intestinal absorption, a more restricted range has values around 1.35–1.80 [57]. Table 2 collects all of the obtained Log Pow values, and it can be seen that, although only complex [Au(ppy)(dedtc)]PF6 (C4) satisfied this restricted range, all of them presented acceptable values of Log Pow.

Candida albicans (Ca) = test: Antifungal MIC assay (CO-ADD); type: cell-based; settings: 36 h, 35 °C, inhibition ≥ 80%
Method: as §1
The antifungal activity of all synthesized complexes was evaluated in two different fungi, Candida albicans (Ca) and Cryptococcus neoformans (Cn). Fungi strains were cultured for 3 days on yeast extract–peptone–dextrose (YPD) agar at 30 °C. A yeast suspension of 1 × 10^6 to 5 × 10^6 CFU/mL (as determined by OD530) was prepared from five colonies. The suspension was subsequently diluted and added to each well of the complex-containing plates, giving a final cell density of fungus suspension of 2.5 × 10^3 CFU/mL and a total volume of 50 μL. All plates were covered and incubated at 35 °C for 36 h without shaking. […] The absorbance was measured using a Biotek Multiflo Synergy HTX plate reader (Winooski, VT, USA). In both cases, the percentage of growth inhibition was calculated for each well, using the negative control (media only) and positive control (fungi without inhibitors) on the same plate. […] Due to a higher variance in growth and inhibition, a lower threshold was applied to the data for C. neoformans.

Caco-2/TC7 normal cells = test: MTT cell viability, normal (differentiated) Caco-2/TC7 cells (15 days after seeding); type: cell-based, human; settings: Caco-2/TC7, 15 days after seeding, 72 h incubation
Method: This study was conducted in the human enterocyte-like cell line Caco-2/TC7 [44]. This cell line undergoes a process of spontaneous differentiation in culture that leads to the formation of a monolayer of cells, expressing the morphological and functional characteristics of the mature enterocytes. This differentiation process is growth-dependent, where the cells undergo differentiation from “undifferentiated proliferative crypt-type cells” in the exponential phase of growth, to “differentiated enterocyte-type cells” in the stationary phase. The cell culture of Caco-2/TC7 cells (passages 30–50) was performed according to a previously reported method.
Cell survival was measured using the MTT test. The assay depends on the cellular reduction of 3-(4,5-dimethylthiazol-2-yl)-2,5-diphenyltetrazolium bromide (MTT, Sigma-Aldrich, Madrid, Spain) by the mitochondrial dehydrogenase of viable cells to a blue formazan product that can be measured spectrophotometrically, as previously described.
The in vitro cytotoxic effect was evaluated on human colon cancer cell line Caco-2/TC7. This particular cell line presents a huge advantage for toxicity studies because of its spontaneous enterocytic-like differentiation when confluence is reached. Therefore, Caco-2 cells become polarized cells expressing apical and basolateral surfaces with well-established tight junctions. Thus, cells present noncarcinogenic behavior in the confluence and the cytotoxic effect of our complexes can be performed on differentiated cells to evaluate the selectivity toward tumor cells. For the antiproliferative studies, MTT assay was performed after 72 h of exposure to different concentrations of the complexes at two different stages of confluence, five days to evaluate the effect on tumor cells (Figure S7) and 15 days for normal cells (Figure S8).

Compound | MIC Ec (Escherichia coli (Ec)) [µg/mL] | MIC Ab [1] [µg/mL] | MIC Pa [2] [µg/mL] | Log Pow [3] | MIC Ca (Candida albicans (Ca)) [µg/mL] | IC50 (Caco-2/TC7 normal cells) [µM]
Cc1ccc(-c2ccccn2)[c]([Au+][S]C(=S)N(C)C)c1.F[P-](F)(F)(F)(F)F [Complex C1, [Au(tpy)(dmdtc)] PF6] | 32 | >32 | >32 | 0.61 | >32 | 23.03 ± 0.06
[Au(ppy)(dedtc)]PF6 [Complex C4] | 32 | >32 | >32 | 1.57 | 32 | 16.79 ± 0.13
CCN(CC)C(=S)[S][Au+][c]1cc(C)ccc1-c1ccccn1.F[P-](F)(F)(F)(F)F [Complex C3, [Au(tpy)(dedtc)]PF6] | 32 | >32 | >32 | 1.17 | >32 | 12.95 ± 0.11
Cc1ccc2[c](c1)[Au-]1([S]C(N(Cc3ccccc3)Cc3ccccc3)=[S+]1)[n+]1ccccc1-2.F[P-](F)(F)(F)(F)F (stereo not drawn) [Complex C5, [Au(tpy)(dbdtc)]PF6] | >32 | >32 | >32 | 0.89 | 32 | > 100
F[P-](F)(F)(F)(F)F.S=C([S][Au+][c]1ccccc1-c1ccccn1)N(Cc1ccccc1)Cc1ccccc1 [Complex C6, [Au(ppy)(dbdtc)]PF6] | >32 | 32 | >32 | 1.00 | 4 | 24.7 ± 0.36
CN(C)C(=S)[S][Au+][c]1ccccc1-c1ccccn1.F[P-](F)(F)(F)(F)F [Complex C2, [Au(ppy)(dmdtc)]PF6] | 32 | 32 | >32 | 1.11 | 32 | 15.69 ± 0.06

Source: paper PMC8698672, “Selective Anticancer and Antimicrobial Metallodrugs Based on Gold(III) Dithiocarbamate Complexes” (Biomedicines, 2021)
